This test addresses T1, GlyT1 transporter (Homo sapiens, UniProt P48067).
T1 construct: endogenously expressing the GlyT1 transporter; host or cells: SK-N-MC human neuroblastoma cells
T1 sequence (P48067 1-706): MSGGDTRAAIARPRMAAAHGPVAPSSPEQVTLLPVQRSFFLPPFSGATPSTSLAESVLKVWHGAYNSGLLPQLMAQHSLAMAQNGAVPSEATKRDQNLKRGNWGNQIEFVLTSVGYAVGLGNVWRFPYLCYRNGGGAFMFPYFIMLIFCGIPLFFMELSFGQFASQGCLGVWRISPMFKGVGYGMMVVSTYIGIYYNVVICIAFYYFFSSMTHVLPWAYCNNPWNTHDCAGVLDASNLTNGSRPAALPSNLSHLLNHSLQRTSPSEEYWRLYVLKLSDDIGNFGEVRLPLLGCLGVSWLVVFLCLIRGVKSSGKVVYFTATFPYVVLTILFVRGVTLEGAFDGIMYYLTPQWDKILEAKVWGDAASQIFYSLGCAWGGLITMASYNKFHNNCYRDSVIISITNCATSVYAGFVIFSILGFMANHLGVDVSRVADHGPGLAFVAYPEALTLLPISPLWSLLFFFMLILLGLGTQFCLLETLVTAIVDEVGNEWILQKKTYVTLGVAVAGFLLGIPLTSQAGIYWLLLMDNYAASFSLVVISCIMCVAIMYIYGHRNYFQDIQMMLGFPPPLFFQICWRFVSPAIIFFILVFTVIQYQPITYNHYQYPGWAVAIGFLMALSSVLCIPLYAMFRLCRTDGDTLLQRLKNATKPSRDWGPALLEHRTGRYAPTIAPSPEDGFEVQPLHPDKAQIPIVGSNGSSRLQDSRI
The experiment in a line: GlyT1 assay: 3H-glycine uptake into SK-N-MC cells (Cytostar-T format). The class given is cell-based. Conditions: glycine uptake in human SK-N-MC cells endogenously expressing GlyT1; 500 nM glycine, 1% DMSO, signal recorded over 60 min. The method in brief:
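Uptake slopes, measured over 60 min from the linear kinetic range, give IC50 from 8 compound concentrations, with 10 μM RG-1678 setting background. Substrate is 500 nM glycine (250 nM ³H, 250 nM unlabelled) in HBSS/5 mM alanine, 1% DMSO, after roughly 5-10 min compound preincubation. Cells: confluent SK-N-MC endogenously expressing human GlyT1.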
What is called IC50 is the concentration that inhibits the measured activity by half. Read a low IC50 as higher potency. `C[C@@H](Oc1ccc(S(C)(=O)=O)cc1C(=O)N1CC2CC2(c2nc(C(F)(F)F)no2)C1)C(F)(F)F` (single isomer, unassigned) [Example 86, [5-Methanesulfonyl-2-(2,2,2-trifluoro-1-methyl-ethoxy)-phenyl]-[1-(3-trifluoromethyl-[1,2,4]oxadiazol-5-yl)-3-aza-bicyclo[3.1.0]hex-3-yl]-methanone] registered an IC50 of 20 nM.

Compound `C[C@@H](Oc1ccc(S(C)(=O)=O)cc1C(=O)N1CC2CC2(c2nc(C(F)(F)F)no2)C1)C(F)(F)F` (single isomer, unassigned) [Example 87, [5-Methanesulfonyl-2-(2,2,2-trifluoro-1-methyl-ethoxy)-phenyl]-[1-(3-trifluoromethyl-[1,2,4]oxadiazol-5-yl)-3-aza-bicyclo[3.1.0]hex-3-yl]-methanone] showed a 50% inhibitory concentration (IC50) of 2360 nM.

As for `C[C@H](Oc1ccc(C#N)cc1C(=O)N1CC2CC2(c2noc(C(F)(F)F)n2)C1)C(F)(F)F` (single isomer, unassigned) [Example 89, 4-(2,2,2-Trifluoro-1-methyl-ethoxy)-3-[1-(5-trifluoromethyl-[1,2,4]oxadiazol-3-yl)-3-aza-bicyclo[3.1.0]hexane-3-carbonyl]-benzonitrile], it took 97 nM to reach half-maximal inhibition (IC50).

`C[C@H](Oc1ccc(C#N)cc1C(=O)N1CC2CC2(c2noc(C(F)(F)F)n2)C1)C(F)(F)F` (single isomer, unassigned) [Example 90, 4-(2,2,2-Trifluoro-1-methyl-ethoxy)-3-[1-(5-trifluoromethyl-[1,2,4]oxadiazol-3-yl)-3-aza-bicyclo[3.1.0]hexane-3-carbonyl]-benzonitrile]: the IC50 came out at 2250 nM.

Compound `CCS(=O)(=O)c1ccc(O[C@H](C)C(F)(F)F)c(C(=O)N2CC3CC3(c3noc(C(F)(F)F)n3)C2)c1` (single isomer, unassigned) [Example 93, [5-Ethanesulfonyl-2-(2,2,2-trifluoro-1-methyl-ethoxy)-phenyl]-[1-(5-trifluoromethyl-[1,2,4]oxadiazol-3-yl)-3-aza-bicyclo[3.1.0]hex-3-yl]-methanone] registered an IC50 of 11 nM.

Regarding `CCS(=O)(=O)c1ccc(O[C@H](C)C(F)(F)F)c(C(=O)N2CC3CC3(c3noc(C(F)(F)F)n3)C2)c1` (single isomer, unassigned) [Example 94, [5-Ethanesulfonyl-2-(2,2,2-trifluoro-1-methyl-ethoxy)-phenyl]-[1-(5-trifluoromethyl-[1,2,4]oxadiazol-3-yl)-3-aza-bicyclo[3.1.0]hex-3-yl]-methanone], the IC50 came out at 2910 nM.

In turn, `CC(C)Oc1ccc(S(C)(=O)=O)cc1C(=O)N1CC2CC2(c2noc(C(F)(F)F)n2)C1` (single isomer, unassigned) [Example 97, (2-Isopropoxy-5-methanesulfonyl-phenyl)-[1-(5-trifluoromethyl-[1,2,4]oxadiazol-3-yl)-3-aza-bicyclo[3.1.0]hex-3-yl]-methanone] yielded an IC50 of 8 nM.

Compound `CC(C)Oc1ccc(S(C)(=O)=O)cc1C(=O)N1CC2CC2(c2noc(C(F)(F)F)n2)C1` (single isomer, unassigned) [Example 98, (2-Isopropoxy-5-methanesulfonyl-phenyl)-[1-(5-trifluoromethyl-[1,2,4]oxadiazol-3-yl)-3-aza-bicyclo[3.1.0]hex-3-yl]-methanone] yielded an IC50 of 1890 nM.

`CCS(=O)(=O)c1ccc(O[C@@H](C)C(F)(F)F)c(C(=O)N2CC3CC3(c3cc(C(F)(F)F)on3)C2)c1` (single isomer, unassigned) [Example 103, [5-Ethanesulfonyl-2-(2,2,2-trifluoro-1-methyl-ethoxy)-phenyl]-[1-(5-trifluoromethyl-isoxazol-3-yl)-3-aza-bicyclo[3.1.0]hex-3-yl]-methanone] displayed a half-maximal inhibitory concentration (IC50) of 7 nM.

Turning to `CCS(=O)(=O)c1ccc(O[C@@H](C)C(F)(F)F)c(C(=O)N2CC3CC3(c3cc(C(F)(F)F)on3)C2)c1` (single isomer, unassigned) [Example 104, [5-Ethanesulfonyl-2-(2,2,2-trifluoro-1-methyl-ethoxy)-phenyl]-[1-(5-trifluoromethyl-isoxazol-3-yl)-3-aza-bicyclo[3.1.0]hex-3-yl]-methanone], the IC50 amounted to 292 nM.

Compound `CCS(=O)(=O)c1ccc(O[C@H](C)C(F)(F)F)c(C(=O)N2CC3CC3(c3cc(C(F)(F)F)on3)C2)c1` (single isomer, unassigned) [Example 106, [5-Ethanesulfonyl-2-(2,2,2-trifluoro-1-methyl-ethoxy)-phenyl]-[1-(5-trifluoromethyl-isoxazol-3-yl)-3-aza-bicyclo[3.1.0]hex-3-yl]-methanone] gave an IC50 of 248 nM.

`CCS(=O)(=O)c1ccc(O[C@H](C)C(F)(F)F)c(C(=O)N2CC3CC3(c3cc(C(F)(F)F)on3)C2)c1` (single isomer, unassigned) [Example 107, [5-Ethanesulfonyl-2-(2,2,2-trifluoro-1-methyl-ethoxy)-phenyl]-[1-(5-trifluoromethyl-isoxazol-3-yl)-3-aza-bicyclo[3.1.0]hex-3-yl]-methanone] showed an IC50 of 5 nM.

`CC(C)Oc1ccc(S(C)(=O)=O)cc1C(=O)N1CC2CC2(c2nc(C(F)(F)F)co2)C1` (single isomer, unassigned) [Example 111, (2-Isopropoxy-5-methanesulfonyl-phenyl)-[1-(4-trifluoromethyl-oxazol-2-yl)-3-aza-bicyclo[3.1.0]hex-3-yl]-methanone] yielded a half-maximal inhibitory concentration (IC50) of 257 nM.

For `C[C@@H](Oc1ccc(S(C)(=O)=O)cc1C(=O)N1CC2CC2(c2nc(C(F)(F)F)co2)C1)C(F)(F)F` (single isomer, unassigned) [Example 114, [5-Methanesulfonyl-2-(2,2,2-trifluoro-1-methyl-ethoxy)-phenyl]-[1-(4-trifluoromethyl-oxazol-2-yl)-3-aza-bicyclo[3.1.0]hex-3-yl]-methanone], the IC50 was found to be 171 nM.

In the case of `COC1(c2nc(C34CC3CN(C(=O)c3cc(S(C)(=O)=O)ccc3O[C@@H](C)C(F)(F)F)C4)no2)CC1` (single isomer, unassigned) [Example 117, [5-Methanesulfonyl-2-(2,2,2-trifluoro-1-methyl-ethoxy)-phenyl]-{1-[5-(1-methoxy-cyclopropyl)-[1,2,4]oxadiazol-3-yl]-3-aza-bicyclo[3.1.0]hex-3-yl}-methanone], half-maximal inhibition (IC50) was put at 6 nM.

`COC1(c2nc(C34CC3CN(C(=O)c3cc(S(C)(=O)=O)ccc3O[C@H](C)C(F)(F)F)C4)no2)CC1` (single isomer, unassigned) [Example 120, [5-Methanesulfonyl-2-(2,2,2-trifluoro-1-methyl-ethoxy)-phenyl]-{1-[5-(1-methoxy-cyclopropyl)-[1,2,4]oxadiazol-3-yl]-3-aza-bicyclo[3.1.0]hex-3-yl}-methanone] registered an IC50 of 6 nM.

In turn, `COC1(c2nc(C34CC3CN(C(=O)c3cc(S(C)(=O)=O)ccc3O[C@H](C)C(F)(F)F)C4)no2)CC1` (single isomer, unassigned) [Example 121, [5-Methanesulfonyl-2-(2,2,2-trifluoro-1-methyl-ethoxy)-phenyl]-{1-[5-(1-methoxy-cyclopropyl)-[1,2,4]oxadiazol-3-yl]-3-aza-bicyclo[3.1.0]hex-3-yl}-methanone] came in with an IC50 of 349 nM.

For the compound `C[C@@H](Oc1ccc(S(C)(=O)=O)cc1C(=O)N1CC2CC2(c2nnc(C(F)(F)F)o2)C1)C(F)(F)F` (single isomer, unassigned) [Example 123, [5-Methanesulfonyl-2-(2,2,2-trifluoro-1-methyl-ethoxy)-phenyl]-[1-(5-trifluoromethyl-[1,3,4]oxadiazol-2-yl)-3-aza-bicyclo[3.1.0]hex-3-yl]-methanone], it took 13 nM to reach half-maximal inhibition (IC50).

As to `C[C@@H](Oc1ccc(S(C)(=O)=O)cc1C(=O)N1CC2CC2(c2nnc(C(F)(F)F)o2)C1)C(F)(F)F` (single isomer, unassigned) [Example 124, [5-Methanesulfonyl-2-(2,2,2-trifluoro-1-methyl-ethoxy)-phenyl]-[1-(5-trifluoromethyl-[1,3,4]oxadiazol-2-yl)-3-aza-bicyclo[3.1.0]hex-3-yl]-methanone], the IC50 stood at 503 nM.

The compound `C[C@H](Oc1ccc(S(C)(=O)=O)cc1C(=O)N1CC2CC2(c2nnc(C(F)(F)F)o2)C1)C(F)(F)F` (single isomer, unassigned) [Example 126, [5-Methanesulfonyl-2-(2,2,2-trifluoro-1-methyl-ethoxy)-phenyl]-[1-(5-trifluoromethyl-[1,3,4]oxadiazol-2-yl)-3-aza-bicyclo[3.1.0]hex-3-yl]-methanone] came in with an IC50 of 16 nM.

The compound `C[C@H](Oc1ccc(S(C)(=O)=O)cc1C(=O)N1CC2CC2(c2nnc(C(F)(F)F)o2)C1)C(F)(F)F` (single isomer, unassigned) [Example 127, [5-Methanesulfonyl-2-(2,2,2-trifluoro-1-methyl-ethoxy)-phenyl]-[1-(5-trifluoromethyl-[1,3,4]oxadiazol-2-yl)-3-aza-bicyclo[3.1.0]hex-3-yl]-methanone] returned an IC50 of 2660 nM.

The values above are taken from patent US9012489B2, “Phenyl-3-aza-bicyclo[3.1.0]hex-3-yl-methanones and the use thereof as medicament” (Boehringer Ingelheim International GmbH, priority 2011, dated 2015).
